By kon is commonly meant the second-order rate constant of association. For orientation: pKi means −log10 of the Ki, conventionally taken in molar units. Higher therefore signals a low Ki.

The assay addresses T1, interleukin-1β converting enzyme (ICE) (Homo sapiens, UniProt P29466).
T1 sequence (P29466 120-297 limits assumed): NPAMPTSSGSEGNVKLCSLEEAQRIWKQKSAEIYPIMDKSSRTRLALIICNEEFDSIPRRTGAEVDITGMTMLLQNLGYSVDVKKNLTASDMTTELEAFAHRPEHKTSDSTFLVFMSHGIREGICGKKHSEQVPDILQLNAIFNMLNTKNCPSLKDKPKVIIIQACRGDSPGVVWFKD
T1 sequence (P29466 317-404 limits assumed): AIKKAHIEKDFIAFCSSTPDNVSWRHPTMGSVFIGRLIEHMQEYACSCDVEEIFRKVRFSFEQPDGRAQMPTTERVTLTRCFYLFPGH
The experiment in a line: Fluorometric assay of inhibition of ICE hydrolysis of peptide substrate Ac-Tyr-Val-Ala-Asp-AMC. Type of assay: biochemical. The conditions noted are these: for kon: irreversible inhibition; for pKi: reversible inhibition. An excerpt: Inhibition of Interleukin-1β Converting Enzyme (ICE).
A fluorometric assay used to evaluate the inhibition of interleukin-1βconverting enzyme (ICE) hydrolysis of a peptide substrate (Ac-Tyr-Val-Ala-Asp-AMC) by the compounds described in Examples 1-15 has been described in detail (N. A. Thornberry et al., Nature 1992, 356, 768-774). Briefly, liberation of AMC (aminomethylcoumarin) from the substrate was monitored continuously in a spectrofluorometer using an excitation wavelength of 380 nm and an emission wavelength of 460 nm. Details for determining kinetic constants for reversible and irreversible inhibition are described (N. A. Thomberry et al., Biochemistry 1994, 33, 3934-3940).
Inhibition of Interleukin-1β Converting Enzyme (ICE) by Examples 1-14

pKi: −log10 of the molar value. Read-outs that look alike come from different tables or passages of the source.

In the case of `CC(C)[C@H](NC(=O)OCc1ccccc1)C(=O)N1CCC[C@H]1C(=O)NC(CC(=O)O)C(=O)COc1cc2ccccc2cc1C(N)=O` (some centres unmarked) [Example 13, N-(N-Carbobenzyloxy-(L)-valinyl-(L)-prolinyl)-3-amino-5-(3-amino-carbonyl-naphthyl-2-oxy)-4-oxo-petanoic acid], the on-rate (kon) is 340,000 M^-1 s^-1.

`C=CCOC(=O)NC(CC(=O)O)C(=O)COc1cc2ccccc2cc1C#N` (centres unmarked) [Example 6, N-Allyloxycarbonyl-3-amino-5-(3-cyano-2-naphthyloxy)-4-oxopentanoic acid] had a negative-log Ki (pKi) of 6.21. In addition, where the note is “read-out: kon”, the kon came to 4500 M⁻¹ s⁻¹.

`CC(=O)N[C@@H](Cc1ccc(O)cc1)C(=O)N[C@H](C(=O)N[C@@H](C)C(=O)NC(CC(=O)O)C(=O)COc1ccccc1)C(C)C` (some centres unmarked) [Example 11, N-(N-Acetyl-(L)-tyrosinyl-(L)-valinyl-(L)-alaninyl)-3-amino-5-phenoxy-4-oxopentanoic acid]: the pKi was 8.52.

Compound `C=CCOC(=O)NC(CC(=O)O)C(=O)COc1ccc2ccccc2c1` (centres unmarked) [Example 3, N-Allyloxycarbonyl-3-amino-5-(2-naphthyloxy)-4-oxopentanoic acid] gave a pKi of 5.30.

`C=CCOC(=O)NC(CC(=O)O)C(=O)COc1cc2ccccc2cc1C(N)=O` (centres unmarked) [Example 4, N-Allyloxycarbonyl-3-amino-5-(3-aminocarbonyl-2-naphthyloxy)-4-oxopentanoic acid] showed a negative logarithm of the Ki (pKi) of 6.52.

Turning to `C=CCOC(=O)NC(CC(=O)O)C(=O)COc1ccccc1` (centres unmarked) [Example 1, N-Allyloxycarbonyl-3-amino-4-oxo-5-phenoxy-pentanoic acid], the negative-log Ki (pKi) was 5.46.

`C=CCOC(=O)NC(CC(=O)O)C(=O)COc1cc2ccccc2cc1CO` (centres unmarked) [Example 7, N-Allyloxycarbonyl-3-amino-5-(3-hydroxymethyl-2-naphthyloxy)-4-oxopentanoic acid] showed a negative logarithm of the Ki (pKi) of 5.92.

For the compound `CC(C)[C@H](NC(=O)OCc1ccccc1)C(=O)N[C@@H](C)C(=O)NC(CC(=O)O)C(=O)COc1cc2ccccc2cc1C(N)=O.CCN(CC)CC` (some centres unmarked) [Example 12, N-(N-Carbobenzyloxy-(L)-valinyl-(L)-alaninyl)-3-amino-5-(3-amino-carbonyl-naphthyl-2-oxy)-4-oxo-pentanoic acid, triethylamine salt], the kon is recorded as 430,000 M^-1 s^-1.

For the compound `C=CCOC(=O)NC(CC(=O)O)C(=O)COc1cccc2ccccc12` (centres unmarked) [Example 2, N-Allyloxycarbonyl-3-amino-5-(1-naphthyloxy)-4-oxopentanoic acid], the negative logarithm of the Ki (pKi) is 5.02.

For `NC(=O)c1cc2ccccc2cc1OCC(=O)C(CC(=O)O)NC(=O)c1cc2ccccc2[nH]1` (centres unmarked) [Example 14, N-(2-indoloyl)-3-amino-5-(3-aminocarbonyl-naphthyl-2-oxy)-4-oxo-pentanoic acid], the on-rate constant (kon) is 390 M⁻¹ s⁻¹.

The compound `C=CCOC(=O)NC(CC(=O)O)C(=O)COc1cc2ccccc2cc1C(=O)OC` (centres unmarked) [Example 8, N-Allyloxycarbonyl-3-amino-5-(3-methoxycarbonyl-2-naphthyloxy)-4-oxopentanoic acid] gave a pKi of 5.59.

As to `C=CCOC(=O)NC(CC(=O)O)C(=O)COc1cc2ccccc2cc1-n1ccnc1` (centres unmarked) [Example 10, N-Allyloxycarbonyl-3-amino-5-(3-imidazolyl-2-naphthyloxy)-4-oxopentanoicacid], the on-rate constant (kon) is recorded as 12,000 M^-1 s^-1 and the negative-log Ki (pKi) is 7.05.

As to `C=CCOC(=O)NC(CC(=O)O)C(=O)COc1cc2ccccc2cc1C(=O)Nc1ccccc1` (centres unmarked) [Example 5, N-Allyloxycarbonyl-3-amino-5-(3-(N-phenyl)aminocarbonyl-2-naphthyloxy)-4-oxopentanoic acid], the pKi was 6.30.

`C=CCOC(=O)NC(CC(=O)O)C(=O)COc1cc2ccccc2cc1C(=O)NCCO` (centres unmarked) [Example 9, N-Allyloxycarbonyl-3-amino-5-(3-(2-hydroxyethyl-1-aminocarbonyl)-2-naphthyloxy)-4-oxopentanoic acid] had a kon of 1000 M⁻¹ s⁻¹ and a negative logarithm of the Ki (pKi) of 6.28.

The values are drawn from patent publication US5866545A, “Substituted ketone derivatives as inhibitors of interleukin-1β converting enzyme” (Merck & Co., Inc., priority 1996, dated 1999).
